We go through 12 compounds from patent US8691855B2, “Compounds, isomer thereof, or pharmaceutically acceptable salts thereof as vanilloid receptor antagonist and pharmaceutical compositions containing the same” (Amorepacific Corporation, priority 2008, dated 2014).

The experiment deals with T1, vanilloid receptor (Rattus norvegicus, UniProt O35433).
T1 construct: DRG nerve cells from the primary culture of 2 days were equilibrated; endogenous in cells; host or cells: primary culture of dorsal root ganglion neurons from neonatal SD rats
T1 sequence (O35433 whole entry): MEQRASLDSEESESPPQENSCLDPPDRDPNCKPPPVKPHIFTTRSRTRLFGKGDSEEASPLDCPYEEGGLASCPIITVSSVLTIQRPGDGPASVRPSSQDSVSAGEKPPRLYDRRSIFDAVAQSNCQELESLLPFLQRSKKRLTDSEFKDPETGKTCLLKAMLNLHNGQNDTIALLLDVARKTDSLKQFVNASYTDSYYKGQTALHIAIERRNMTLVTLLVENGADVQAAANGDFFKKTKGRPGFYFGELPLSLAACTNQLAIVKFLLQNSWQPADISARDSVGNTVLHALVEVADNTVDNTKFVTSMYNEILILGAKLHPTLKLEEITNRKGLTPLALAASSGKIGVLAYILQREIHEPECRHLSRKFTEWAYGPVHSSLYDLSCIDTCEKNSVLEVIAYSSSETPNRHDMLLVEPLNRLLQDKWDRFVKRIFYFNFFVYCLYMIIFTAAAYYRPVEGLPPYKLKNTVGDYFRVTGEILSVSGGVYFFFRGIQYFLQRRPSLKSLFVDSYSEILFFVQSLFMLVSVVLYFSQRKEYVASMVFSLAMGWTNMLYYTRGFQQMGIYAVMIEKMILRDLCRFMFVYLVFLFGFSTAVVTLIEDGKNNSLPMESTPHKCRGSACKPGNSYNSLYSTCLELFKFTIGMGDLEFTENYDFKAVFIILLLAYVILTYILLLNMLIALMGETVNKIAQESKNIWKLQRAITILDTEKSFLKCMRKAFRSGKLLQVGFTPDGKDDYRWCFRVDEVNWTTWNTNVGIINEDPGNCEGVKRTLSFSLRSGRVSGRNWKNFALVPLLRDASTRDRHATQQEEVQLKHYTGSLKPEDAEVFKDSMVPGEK
The experiment can be described thus: 45Ca influx test (antagonist calcium uptake test) in rat DRG neurons stimulated with capsaicin. The format is cell-based. Conditions: neonatal SD rat DRG neurons, capsaicin 0.5 μM; for IC50: 45Ca. The method, then: 1) Separation of spinal dorsal root ganglia (DRG) in newborn rats and primary culture thereof
Neonatal (2-3 clay old or younger than 2-3 day old) SD rats were put in ice for 5 minutes to anesthetize and disinfected with 70% ethanol. DRG of all part of spinal cord were dissected (Wood et al., 1988, J. Neurosci. 8, pp 3208-3220) and collected in DME/F12 medium to which 1.2 g/l sodium bicarbonate and 50 mg/l gentamycin were added. The DRG were incubated sequentially at 37° C. for 30 mins in 200 U/ml collagenase and 2.5 mg/ml trypsin, separately. The ganglia were washed twice with DME/F12 medium supplemented with 10% horse serum, triturated through a fire-polished Pasteur pipette, filtered through Nitex 80 membrane to obtain single cell suspension and the suspension was washed once more. This was subjected to centrifugation, then resuspended in cell culture medium at certain level of cell density. As the cell culture medium, DME/F12 medium supplemented with 10% horse serum was diluted with identical medium conditioned by C6 glioma cells 2 clays on a confluent monolayer (1:1), and NGF (Nerve Growth Factor) was added to adjust 200 ng/ml as final concentration. After the cells were grown 2 days in medium where cytosine arabinoside (Ara-C, 100 μM) was added to kill dividing nonneuronal cells, medium was changed to one without Ara-C. The resuspended cells were plated at a density of 1500-2000 neurons/well onto Terasaki plates previously coated with 10 μg/ml poly-D-ornithine.
2) ^45Ca Influx Experiments
DRG nerve cells from the primary culture of 2 days were equilibrated by washing 4 times with HEPES (10 mM, pH 7.4)-buffered Ca^2+, Mg^2+-free HBSS (H-HBSS). The solution in each well was removed from the individual well. Medium containing the test compound plus capsaicin (final concentration 0.5 μM) and ^45Ca (final concentration 10 μCi/ml) in H-HBSS was added to each well and incubated at room temperature for 10 nuns. Terasaki plates were washed five times with H-HBSS and dried at room temperature. To each well, 0.3% SDS (10 μl) was added to elute ^45Ca. After the addition of scintillation cocktail of into each well, the amount of ^45Ca influx into neuron was measured by counting radioactivity. Antagonistic activities of test compounds against vanilloid receptor were calculated as percent of the inhibition of maximal response of capsaicin at a concentration of 0.5 μM.

Some results are limits rather than exact numbers.

In general, IC50 refers to the concentration at which inhibition is half-maximal. For the compound `C[C@@H](NC(=O)c1coc(-c2ccc(F)c(C(F)(F)F)c2)n1)c1cc(F)c(NS(C)(=O)=O)c(F)c1` [Example 92, 2-(4-Fluoro-3-trifluoromethyl-phenyl)-oxazole-4-carboxylic acid [1-(3,5-difluoro-4-methanesulfonylamino-phenyl)-ethyl]-amide], the concentration for half-maximal inhibition (IC50) came out at 1700 nM.
The same measure, in the same setting: to `C[C@@H](NC(=O)c1coc(-c2cccc(Cl)c2Cl)n1)c1cc(F)c(NS(C)(=O)=O)c(F)c1` [Example 85, 2-(2,3-Dichloro-phenyl)-oxazole-4-carboxylic acid [1-(3,5-difluoro-4-methanesulfonylamino-phenyl)-ethyl]-amide] belongs 1200 nM.
As to `C[C@@H](NC(=O)c1cc(-c2ccc(Br)cc2)oc1C(F)(F)F)c1cc(F)c(NS(C)(=O)=O)c(F)c1` [Example 62, 5-(4-Bromo-phenyl)-2-trifluoromethyl-furan-3-carboxylic acid [1-(3,5-difluoro-4-methanesulfonylamino-phenyl)-ethyl]-amide], the half-maximal inhibitory concentration (IC50) stood at 440 nM.
Regarding `C[C@@H](NC(=O)c1coc(-c2ccc3ccccc3c2)n1)c1cc(F)c(NS(C)(=O)=O)c(F)c1` [Example 89, 2-Naphthalen-2-yl-oxazole-4-carboxylic acid [1-(3,5-difluoro-4-methanesulfonylamino-phenyl)-ethyl]-amide], the IC50 worked out at 2700 nM.
On to `C[C@@H](NC(=O)c1coc(Oc2cccc3c2CCC3C(F)(F)F)n1)c1cc(F)c(NS(C)(=O)=O)c(F)c1` (stereo in doubt) [Example 57, 2-(1-Trifluoromethyl-indan-4-yloxy)-oxazole-4-carboxylic acid [1-(3,5-difluoro-4-methanesulfonylamino-phenyl)-ethyl]-amide], for which the half-inhibitory concentration (IC50) stood at 330 nM.
Turning to `C[C@@H](NC(=O)c1coc(-c2cccc3ccccc23)n1)c1cc(F)c(NS(C)(=O)=O)c(F)c1` [Example 88, 2-Naphthalen-1-yl-oxazole-4-carboxylic acid [1-(3,5-difluoro-4-methanesulfonylamino-phenyl)-ethyl]-amide], the half-inhibitory concentration (IC50) stood at 720 nM.
What is called inhibition is the percentage by which the read-out fell short of the control. For the compound `C#Cc1cc(CNC(=O)c2ccc(-c3cccc(C(F)(F)F)c3)o2)cc(F)c1NS(C)(=O)=O` [Example 104, 5-(3-Trifluoromethyl-phenyl)-furan-2-carboxylic acid 3-ethynyl-5-fluoro-4-methanesulfonylamino-benzylamide], the inhibition at 1 µM (DRG neuron, @1 μM, read-out: Antagonist Calcium Uptake Test, percent inhibition of capsaicin response) amounted to 100%.
For the compound `CCN(CC)c1cccc(Oc2nc(C(=O)N[C@H](C)c3cc(F)c(NS(C)(=O)=O)c(F)c3)co2)c1` [Example 8, 2-(3-Diethylamino-phenoxy)-oxazole-4-carboxylic acid [1-(3,5-difluoro-4-methanesulfonylamino-phenyl)-ethyl]-amide], the IC50 was determined as 2700 nM.
In the case of `COc1ccc(C(C)C)cc1-c1nc(C(=O)N[C@H](C)c2cc(F)c(NS(C)(=O)=O)c(F)c2)co1` [Example 77, 2-(5-Isopropyl-2-methoxy-phenyl)-oxazole-4-carboxylic acid [1-(3,5-difluoro-4-methanesulfonylamino-phenyl)-ethyl]-amide], the IC50 was 2000 nM.
On the same count and under the same terms, to `CSc1cccc(-c2nc(C(=O)N[C@H](C)c3cc(F)c(NS(C)(=O)=O)c(F)c3)co2)c1` [Example 98, 2-(3-Methylsulfanyl-phenyl)-oxazole-4-carboxylic acid [1-(3,5-difluoro-4-methanesulfonylamino-phenyl)-ethyl]-amide] belongs 1700 nM.
In the case of `C[C@@H](NC(=O)c1coc(Oc2cccc(C#N)c2)n1)c1cc(F)c(NS(C)(=O)=O)c(F)c1` [Example 17, 2-(3-Cyano-phenoxy)-oxazole-4-carboxylic acid [1-(3,5-difluoro-4-methanesulfonylamino-phenyl)-ethyl]-amide], the IC50 is more than 10000 nM.
Turning to `CCOc1cccc(-c2ccc(C(=O)NCc3cc(F)c(NS(C)(=O)=O)c(F)c3)s2)c1` [Example 64, 5-(3-Ethoxy-phenyl)-thiophene-2-carboxylic acid 3,5-difluoro-4-methanesulfonylamino-benzylamide], the IC50 came out at 4100 nM.
